Test results as given in patent US20150173371A1 (Dow AgroSciences LLC, priority 2013, published 2015).
Values joined by “and” are separate entries in the source; they are usually repeats but may differ in a detail not shown here. Equal values may be shown once. Read-outs that look alike come from different tables or passages of the source.

Tests used:
[1] = tested on: Abutilon theophrasti (velvetleaf, ABUTH); assay: Greenhouse trial, % visual weed control; type: in vivo; settings: 14DAA
Procedure: (§1) Greenhouse trials were conducted under controlled environment greenhouse conditions, with plants grown in pots with Metromix soil and bottom watered. Treatments were applied with 3 replicates per treatment, using a track sprayer with 2 flat fan nozzles at 40 pounds per square inch (PSI). Water was used as the diluent at 140 liters per hectare (L/ha), with weeds being 2-4 leaf stage and approximately 3 inches in height at treatment.

[2] = tested on: Ambrosia artemisiifolia (common ragweed, AMBEL); assay: Greenhouse trial, % visual weed control; type: in vivo; settings: 14DAA, 105 g ae/ha alone
Procedure: as §1

[3] = tested on: Chenopodium album (common lambsquarter, CHEAL); assay: Greenhouse trial, % visual weed control; type: in vivo; settings: 14DAA
Procedure: as §1

[4] = tested on: Elymus repens (quackgrass, AGRRE); assay: Greenhouse trial, % visual weed control; type: in vivo; settings: 14DAA, 210 g ae/ha alone
Procedure: as §1

[5] = tested on: Conyza bonariensis (hairy fleabane, ERIBO); settings: field trial
Procedure: (§2) Field trials were conducted under normal field conditions in multiple states in the United States, including but not limited to Alabama, Mississipi, South Carolina and Tennessee; and in Brazil, including but not limited to the states of Goias, Mato Grosso, Parana, Rio Grande do Sul, and Sao Paulo. Trials were established as RCB (randomized complete block) design, with 3-4 replicates per treatment, and plot sizes varying from 2-3 meters (m) wide by 4-8 m long. Treatments were applied with small plot backpack sprayers, using pressurized carbon dioxide (CO2) as propellant. Pressure varied from 22-40 PSI, with spray tips typically of a Flat Fan type applying water diluent at 150 L/ha. Boom sizes varied from 2-3 m in width. Treatments were applied to soybean, cotton or fallow crop land. Weed sizes varied, but all treatments were applied as post-emergence treatments to weeds from 2 leaf to 2 tiller growth stages varying from 2-15 inches (in) in height. No additional adjuvant was mixed with the treatments applied in the field
(§3) The treated plots and control plots were rated blind at various intervals after application.
(§4) Colby's equation was used to determine the herbicidal effects expected from the mixtures (Colby, S. R. Calculation of the synergistic and antagonistic response of herbicide combinations. Weeds 1967 15, 20-22). A t-test (alpha=0.05) between Colby predictions and observed combinations was used to test for significant differences indicating synergy or antagonism.
(§5) The following equation was used to calculate the expected activity of mixtures containing two active ingredients, A and B:
(§6) Expected=A+B−(A×B/100) • A=observed efficacy of active ingredient A at the same concentration as used in the mixture; • B=observed efficacy of active ingredient B at the same concentration as used in the mixture.

[6] = tested on: Conyza canadensis (horseweed, ERICA); settings: field trial
Procedure: as §2, §3, §4, §5, §6

[7] = tested on: Amaranthus palmeri (Palmer pigweed, AMAPA); assay: Field trial, % visual weed control; type: in vivo
Excerpt: (§7) Boom sizes varied from 2-3 m in width.

[8] = tested on: Brachiaria decumbens (Surinam grass, BRADC); assay: Field trial, % visual weed control; type: in vivo; settings: 12DAA, 720 g ae/ha alone
Excerpt: as §7

[9] = tested on: Commelina benghalensis (hairy wandering Jew, COMBE); assay: Field trial, % visual weed control; type: in vivo; settings: 800 g ae/ha alone
Excerpt: as §7

[10] = tested on: Euphorbia heterophylla (wild poinsettia, EPHHL); assay: Field trial, % visual weed control; type: in vivo; settings: 28DAA, 615 g ae/ha alone
Excerpt: as §7

[11] = tested on: Euphorbia hirta (garden spurge, EPHHI); assay: Field trial, % visual weed control; type: in vivo
Excerpt: as §7

[12] = tested on: Glycine max (soybean, glyphosate tolerant, GLXMA); assay: Field trial, % visual weed control; type: in vivo
Excerpt: as §7

[13] = tested on: Ipomoea grandifolia (Corda-de-viola, IAQGR); assay: Field trial, % visual weed control; type: in vivo; settings: 17DAA, 800 g ae/ha alone
Excerpt: as §7

[14] = tested on: Ipomoea species (morningglory, IPOSS); assay: Field trial, % visual weed control; type: in vivo; settings: 8DAA, 840 g ae/ha alone
Excerpt: as §7

[15] = tested on: Jacquemontia tamnifolia (smallflower morningglory, IAQTA); assay: Field trial, % visual weed control; type: in vivo; settings: 7DAA, 1120 g ae/ha alone
Excerpt: as §7

[16] = tested on: Raphanus raphanistrim (wild radish, RAPRA); assay: Field trial, % visual weed control; type: in vivo; settings: 6DAA, 800 g ae/ha alone
Excerpt: as §7

[17] = tested on: Sesbania exaltata (hemp sesbania, SEBEX); assay: Field trial, % visual weed control; type: in vivo; settings: 8DAA, 840 g ae/ha alone
Excerpt: as §7

[18] = tested on: Spermacoce latifolia (broadleaf buttonweed, BOILF); assay: Field trial, % visual weed control; type: in vivo
Excerpt: as §7

[19] = tested on: Tridax procumbens L (tridax daisy, TRQPR); assay: Field trial, % visual weed control; type: in vivo; settings: 16DAA, 800 g ae/ha alone
Excerpt: as §7

SMILES: CNC.O=C(O)CNCP(=O)(O)O [Glyphosate-DMA, dimethylamine salt of N-(phosphonomethyl)glycine]
- Mean % Weed Control ([1]; 105 g ae/ha alone): 0.0%
- Mean % Weed Control ([1]; 210 g ae/ha alone): 3.3%
- Mean % Weed Control ([1]; 420 g ae/ha alone): 63.3%
- Mean % Weed Control ([1]; 840 g ae/ha alone): 85.0%
- Mean % Weed Control [2]: 26.7%
- Mean % Weed Control ([3]; 105 g ae/ha alone): 0.0%
- Mean % Weed Control ([3]; 210 g ae/ha alone): 21.7%
- Mean % Weed Control ([3]; 420 g ae/ha alone): 70.0%
- Mean % Weed Control [4]: 12.5%
- Mean % Weed Control ([5]; 6DAA, 360 g ae/ha alone): 6.3%
- Mean % Weed Control ([5]; 6DAA, 720 g ae/ha alone): 5.0%
- Mean % Weed Control ([5]; 6DAA, 1080 g ae/ha alone): 12.5%
- Mean % Weed Control ([5]; 7DAA, 800 g ae/ha alone): 13.8% and 11.3%
- Mean % Weed Control ([5]; 10DAA, 800 g ae/ha alone): 41.3%
- Mean % Weed Control ([5]; 20DAA, 800 g ae/ha alone): 35.0%
- Mean % Weed Control ([5]; 21DAA, 800 g ae/ha alone): 36.3%
- Mean % Weed Control ([5]; 28DAA, 800 g ae/ha alone): 53.8% and 32.5% and 33.8%
- Mean % Weed Control ([5]; 31DAA, 800 g ae/ha alone): 38.8%
- Mean % Weed Control ([5]; 36DAA, 800 g ae/ha alone): 75.0% and 55.0%
- Mean % Weed Control ([6]; 10DAA, 960 g ae/ha alone): 10%
- Mean % Weed Control ([6]; 14DAA, 840 g ae/ha alone): 67.5%
- Mean % Weed Control ([6]; 15DAA, 960 g ae/ha alone): 15%
- Mean % Weed Control ([6]; 21DAA, 840 g ae/ha alone): 68.8%
- Mean % Weed Control ([6]; 28DAA, 840 g ae/ha alone): 78.3%
- Mean % Weed Control ([6]; 31DAA, 960 g ae/ha alone): 51.7%
- Mean % Weed Control ([7]; 7DAA, 840 g ae/ha alone): 52.5%
- Mean % Weed Control ([7]; 13DAA, 1120 g ae/ha alone): 60.0%
- Mean % Weed Control ([7]; 21DAA, 1120 g ae/ha alone): 61.3%
- Mean % Weed Control [8]: 73.8%
- Mean % Weed Control ([9]; 12DAA): 50.0%
- Mean % Weed Control ([9]; 15DAA): 62.5% and 43.8%
- Mean % Weed Control ([9]; 18DAA): 51.3%
- Mean % Weed Control ([9]; 27DAA): 70.0%
- Mean % Weed Control ([9]; 28DAA): 63.8%
- Mean % Weed Control ([9]; 35DAA): 67.5%
- Mean % Weed Control [10]: 68.3%
- Mean % Weed Control ([11]; 7DAA, 800 g ae/ha alone): 43.8%
- Mean % Weed Control ([11]; 18DAA, 800 g ae/ha alone): 50.0%
- Mean % Weed Control ([11]; 21DAA, 800 g ae/ha alone): 41.3%
- Mean % Weed Control ([11]; 24DAA, 480 g ae/ha alone): 50.0%
- Mean % Weed Control ([12]; 7DAA, 960 g ae/ha alone): 0.0%
- Mean % Weed Control ([12]; 16DAA, 480 g ae/ha alone): 0.0%
- Mean % Weed Control ([12]; 28DAA, 480 g ae/ha alone): 0.0%
- Mean % Weed Control ([12]; 28DAA, 960 g ae/ha alone): 0.0%
- Mean % Weed Control ([12]; 30DAA, 480 g ae/ha alone): 0.0%
- Mean % Weed Control [13]: 87.0%
- Mean % Weed Control [14]: 48.8%
- Mean % Weed Control [15]: 86.3%
- Mean % Weed Control [16]: 85.0%
- Mean % Weed Control [17]: 53.8%
- Mean % Weed Control ([18]; 18DAA, 800 g ae/ha alone): 47.5%
- Mean % Weed Control ([18]; 21DAA, 800 g ae/ha alone): 79.5%
- Mean % Weed Control ([18]; 24DAA, 480 g ae/ha alone): 51.7%
- Mean % Weed Control ([18]; 27DAA, 800 g ae/ha alone): 72.5%
- Mean % Weed Control ([18]; 28DAA, 800 g ae/ha alone): 77.5%
- Mean % Weed Control [19]: 47.5%
